From patent publication US5998477A, “Substituted methoxy benzylidene indenyl-acetic and propionic acids for treating patients with precancerous lesions” (Cell Pathways Inc., priority 1997, dated 1999)
Entries after “also recorded” stand apart in the source; their conditions may differ.

Experiments:
SW-480 cell line = experiment: Tumor cell growth inhibition, Sulforhodamine B (SRB) protein binding assay, SW-480; format: cell-based; details: Homo sapiens, SW480, 144 h, SW-480, six days exposure, read-out: Single Dose Percent Inhibition
Protocol: (§1) Drug stock solutions were made in 100% DMSO then diluted with RPMI media for cell culture testing. All drug solutions were prepared fresh on the day of testing. The cultured cells were obtained at passage #118 and grown in RPMI media supplemented with 5% fetal calf serum, and 2 mM glutamine, 100 U/ml penicillin, 100 U/ml streptomycin, and 0.25 μg/ml amphotericin. The cultures were maintained in a humidified atmosphere of 95% air and 5% CO2 at 37° C. The cultures were passaged at preconfluent densities using a solution of 0.05% trypsin and 0.53 mM EDTA. All experiments involved HT-29 cells between passages 120 and 140, except for the compound of Example 29 which involved SW-480 cell line. Cells were plated at the following densities to obtain cultures used for the experiments: 500 cells/well for 96 well flat-bottom microtiter plates, 1×10^6 cells 2 per 25 cm^2 flask.
Tumor cell growth inhibition was assessed using the Sulforhodamine B (SRB) protein binding assay. In this assay, tumor cells were plated in 96-well plates and treated with drug-containing media for six days (continuous exposure). […] The dye was then solubilized, and the optical density of the resulting solution was determined on a 96-well plate reader. […]
For each experiment, an IC50 value was determined, if possible, and used for comparative purposes. […]

HT-29 = experiment: Apoptosis/Necrosis by fluorescent microscopy (acridine orange and ethidium bromide); format: cell-based, human
Protocol: as §1
Apoptosis and necrosis were measured using an assay that allowed for the simultaneous measurement of both types of cell death based on morphological characteristics of apoptotic cells (i.e., condensed chromatin) and membrane permeability. Drug preparation and cell culture conditions were the same as for the SRB assay described above. Confluent cultures were established in 25 cm^2 flasks. The cultures were assayed for apoptosis and necrosis by fluorescent microscopy following labeling with acridine orange and ethidium bromide. Floating and attached cells were collected by trypsinization and washed three times in PBS. One ml aliquots of 1×10^6 cells were centrifuged (300 g). The pellet was resuspended in 25 μl media and 1 μl of a dye mixture containing 100 μg/ml acridine orange and 100 μg/ml ethidium bromide prepared in PBS and mixed gently. Ten μl of mixture was placed on a microscope slide and covered with a 22 mm^2 coversilp and examined under 40× dry objectives using epillumination and filter combination.
An observer blinded to the identity of the treatments scored at least 100 cells per sample. Apoptotic cells were identified by nuclear condensation of chromatin stained by the acridine orange or ethidium bromide, respectively. Necrotic cells were identified by uniform labelling of the cell with ethidium bromide.

[1] = tested on: DMBA-Induced Mammary Lesions in Organ Culture; experiment: Mouse mammary gland organ culture, DMBA-induced mammary lesions; format: cell-based, mouse (BALB/c); details: vs. vehicle (DMSO), read-out: Percent Inhibition
Protocol: The compound of Example No. 1 was also tested for its ability to inhibit the incidence of mammary lesions in an organ culture system. This mouse mammary gland organ culture technique has been successfully used by other investigators to study the effects of known cancer-chemopreventative agents such as retinoids and selenium.
Female BALB/c mice, 28 days old, were treated for nine days with a combination of 1 μg of estradiol and 1 mg of progesterone daily, in order to prime the glands to be responsive to hormones in vitro. The animals were sacrificed and thoracic mammary glands were excised aseptically and incubated for ten days in growth media supplemented with growth-promoting hormones: insulin, prolactin, and hydrocortisone, at 5 μg/ml each and aldosterone at 1 μg/ml. A twenty-four hour treatment of 7,12-dimethylbenz(a)anthracene (DMBA, 2 μg/ml) was carried out between days three and four to induce the formation of mammary lesions. Fully developed glands were deprived of prolactin, hydrocortisone, and aldosterone for 14 days, resulting in the regression of the glands but not the mammary lesions. […]
The extent of the area occupied by the mammary lesions was quantitated by projecting an image of the gland onto a digitation pad. […] The space covered by each of the unregressed structures was also outlined on the digitization pad and quantitated by the computer.

[2] = background; sulfoxide itself; cited from earlier work
[3] = background; cited from earlier work
colonic polyps = details: patients taking the drug; cited from earlier work
precancerous lesions = details: background; cited from earlier work
prostaglandin synthesis = details: background; cited from earlier work
[4] = background; cited from earlier work; remark: listed apart in the source

Compound: COc1cc(/C=C2/C(C)=C(CC(=O)O)c3cc(F)ccc32)cc(Br)c1OC [Example 29, (Z)-5-fluoro-2-methyl-1-(3-bromo-4,5-dimethoxybenzylidene)-3-indenyl-acetic acid]
- inhibition at 100 µM (SW-480 cell line): 80%

Compound: COc1ccc(/C=C2/C(C)=C(CC(=O)O)c3cc(F)ccc32)c(OC)c1OC [Example 7, (Z)-5-fluoro-2-methyl-1-(2,3,4-trimethoxybenzylidene)-3-indenyl-acetic acid]
- % Apoptotic Cells (HT-29; 200 μM): > 90%

Compound: COc1cc(OC)c(/C=C2/C(C)=C(CC(=O)O)c3cc(F)ccc32)c(OC)c1 [Example 4, (Z)-5-fluoro-2-methyl-1-(2,4,6-trimethoxybenzyildene)-3-indenyl-acetic acid]
- % Apoptotic Cells (HT-29; 200 μM): > 90%

Compound: COc1cc(/C=C2/C(C)=C(CC(=O)O)c3cc(F)ccc32)cc(OC)c1OC [Example 1, (Z)-5-fluoro-2-methyl-1-(3,4,5-trimethoxybenzylidene)-3-indenyl-acetic acid]
- % Apoptotic Cells (HT-29; 200 μM): > 90%
- inhibition at 10 µM ([1]; 10 μM): 50%
- inhibition at 100 µM ([1]; 100 μM): 100%

Compound: COc1ccc(/C=C2/C(C)=C(CC(=O)O)c3cc(F)ccc32)cc1 [Example 11, (Z)-5-fluoro-2-methyl-1-(4-methoxybenzylidene)-3-indenyl-acetic acid]
- % Apoptotic Cells (HT-29; 200 μM): > 90%

Compound: CC1=C(CC(=O)O)c2cc(F)ccc2/C1=C\c1ccccc1 [Example 10, (Z)-5-fluoro-2-methyl-1-benzylidene-3-indenyl-acetic acid]
- % Apoptotic Cells (HT-29; 300 μM): 90%

Compound: CC1=C(CC(=O)O)c2cc(F)ccc2/C1=C\c1ccc([S+](C)[O-])cc1 (stereo not drawn) [Sulindac]
- anti-arthritic activity [2]: believed to be inactive as an anti-arthritic agent
- metabolic conversion [3]: converted by liver enzymes to the corresponding sulfide; also recorded: metabolized to sulfone compound
- effect on polyps (colonic polyps): Polyps virtually disappear

Compound: COc1cc(OC)c(OC)cc1/C=C1/C(C)=C(CC(=O)O)c2cc(F)ccc21 [Example 8, (Z)-5-fluoro-2-methyl-1-(2,4,5-trimethoxybenzylidene)-3-indenyl-acetic acid]
- % Apoptotic Cells (HT-29; 200 μM): > 90%

Compound: CC1=C(CC(=O)O)c2cc(F)ccc2/C1=C\c1c(Cl)cccc1Cl [Example 6, (Z)-5-fluoro-2-methyl-1-(2,6-dichlorobenzylidene)-3-indenyl-acetic acid]
- % Apoptotic Cells (HT-29; 200 μM): 60%
- % Necrotic Cells (HT-29; 200 μM): 40%

Compound: CC1=C(CC(=O)O)c2cc(F)ccc2/C1=C\c1ccc(S(C)(=O)=O)cc1 [sulfone]
- inhibition of precancerous lesions (precancerous lesions): active as an inhibitor of precancerous lesions
- prostaglandin synthesis inhibition (prostaglandin synthesis): inactive as an inhibitor of prostaglandin synthesis

Compound: CSc1ccc(/C=C2/C(C)=C(CC(=O)O)c3cc(F)ccc32)cc1 [Sulindac Sulfide]
- side effects [4]: associated with the side effects of conventional NSAIDs
- prostaglandin synthesis inhibition (prostaglandin synthesis): active moiety as a prostaglandin synthesis inhibitor
